Data from patent publication US8466167B2, “Compounds and compositions as TLR activity modulators” (IRM LLC, priority 2008, dated 2013).
Like-named read-outs stand apart in the source and are kept apart here.

Columns and labels:
human TLR8 = molecular target: T1, human TLR8 (Homo sapiens, UniProt Q9NR97); assay: Reporter gene assay, HEK293-TLR8 (NF-kB-driven luciferase); type: cell-based; conditions: TLR-8 stimulation; read-out: Human TLR-8 EC50
T1 construct: expressed in transfected cells; host or cells: HEK 293
T1 sequence (Q9NR97 27-1041): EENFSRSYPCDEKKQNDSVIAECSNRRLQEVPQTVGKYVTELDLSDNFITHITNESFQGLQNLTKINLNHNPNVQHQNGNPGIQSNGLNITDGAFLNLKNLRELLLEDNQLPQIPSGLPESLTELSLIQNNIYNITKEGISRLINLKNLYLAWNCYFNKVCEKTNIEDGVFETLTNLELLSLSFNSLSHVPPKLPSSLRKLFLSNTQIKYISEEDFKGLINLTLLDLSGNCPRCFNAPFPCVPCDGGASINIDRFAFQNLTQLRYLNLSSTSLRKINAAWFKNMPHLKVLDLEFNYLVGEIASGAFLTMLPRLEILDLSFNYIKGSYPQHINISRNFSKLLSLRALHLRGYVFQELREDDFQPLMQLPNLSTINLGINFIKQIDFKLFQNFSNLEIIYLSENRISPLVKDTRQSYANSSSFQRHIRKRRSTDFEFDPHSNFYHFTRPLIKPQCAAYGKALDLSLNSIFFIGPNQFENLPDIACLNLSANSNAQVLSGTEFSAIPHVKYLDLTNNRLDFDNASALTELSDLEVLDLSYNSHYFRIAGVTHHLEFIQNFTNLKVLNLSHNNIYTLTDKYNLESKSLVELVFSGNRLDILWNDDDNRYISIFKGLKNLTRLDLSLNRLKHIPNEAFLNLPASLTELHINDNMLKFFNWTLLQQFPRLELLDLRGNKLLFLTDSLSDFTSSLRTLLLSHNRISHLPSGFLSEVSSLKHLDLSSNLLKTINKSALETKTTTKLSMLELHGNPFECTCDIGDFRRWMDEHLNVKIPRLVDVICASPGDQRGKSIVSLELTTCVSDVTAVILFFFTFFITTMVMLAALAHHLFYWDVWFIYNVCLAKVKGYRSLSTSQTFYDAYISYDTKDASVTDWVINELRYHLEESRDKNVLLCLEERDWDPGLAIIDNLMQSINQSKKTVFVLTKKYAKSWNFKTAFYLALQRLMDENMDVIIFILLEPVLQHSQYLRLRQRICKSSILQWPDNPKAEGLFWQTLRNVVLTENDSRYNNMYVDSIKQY
Procedure: (§1) Human embryonic kidney 293 (HEK 293) cells are stably transfected with human TLR7 or TLR8 and an NF-kB-driven luciferase reporter vector (pNifty-Luciferase). As a control assay, normal Hek293 transfected with pNifty-Luc are used. Cells are cultured in DMEM supplemented with 2 mM L-glutamine, 10% heart inactivated FBS, 1% penicillin and streptomycin, 2 μg/ml puromycin (InvivoGen #ant-pr-5) and 5 μg/ml of blasticidin (Invitrogen #46-1120). Bright-Glo™ Luciferase assay buffer and substrate are supplied by Promega #E263B and #E264B (assay substrate and buffer respectively). 384 well clear-bottom plates are supplied by Greiner bio-one (#789163-G) and are GNF custom bar-coded plates.
(§2) Cells are plated at 25,000 cells/well in 384-well plates in a final volume of 50 μl of media. Cells are allowed to adhere to the plates after overnight (18 hours) culture at 37° C. 5% CO2. Serially diluted experimental and positive control compounds are then dispensed to each well and incubated for 7 hours at 37° C. 5% CO2. Cells stimulated with DMSO alone also serve as negative controls. After the incubation, 30 μl of the pre-mix assay buffer and substrate buffer are added to each well according to manufacturer's instructions. The luminescence signal is read on a CLIPR machine with an integration time of 20 seconds per plate.
(§3) Dose response curves are generated for each compound and EC50 values were determined as the concentration that gives 50% of the maximal signal.

human TLR7 = molecular target: T2, human TLR7 (Homo sapiens, UniProt Q9NYK1); assay: Reporter gene assay, HEK293-TLR7 (NF-kB-driven luciferase); type: cell-based
T2 construct: expressed in transfected cells; host or cells: HEK 293
T2 sequence (Q9NYK1 27-1049): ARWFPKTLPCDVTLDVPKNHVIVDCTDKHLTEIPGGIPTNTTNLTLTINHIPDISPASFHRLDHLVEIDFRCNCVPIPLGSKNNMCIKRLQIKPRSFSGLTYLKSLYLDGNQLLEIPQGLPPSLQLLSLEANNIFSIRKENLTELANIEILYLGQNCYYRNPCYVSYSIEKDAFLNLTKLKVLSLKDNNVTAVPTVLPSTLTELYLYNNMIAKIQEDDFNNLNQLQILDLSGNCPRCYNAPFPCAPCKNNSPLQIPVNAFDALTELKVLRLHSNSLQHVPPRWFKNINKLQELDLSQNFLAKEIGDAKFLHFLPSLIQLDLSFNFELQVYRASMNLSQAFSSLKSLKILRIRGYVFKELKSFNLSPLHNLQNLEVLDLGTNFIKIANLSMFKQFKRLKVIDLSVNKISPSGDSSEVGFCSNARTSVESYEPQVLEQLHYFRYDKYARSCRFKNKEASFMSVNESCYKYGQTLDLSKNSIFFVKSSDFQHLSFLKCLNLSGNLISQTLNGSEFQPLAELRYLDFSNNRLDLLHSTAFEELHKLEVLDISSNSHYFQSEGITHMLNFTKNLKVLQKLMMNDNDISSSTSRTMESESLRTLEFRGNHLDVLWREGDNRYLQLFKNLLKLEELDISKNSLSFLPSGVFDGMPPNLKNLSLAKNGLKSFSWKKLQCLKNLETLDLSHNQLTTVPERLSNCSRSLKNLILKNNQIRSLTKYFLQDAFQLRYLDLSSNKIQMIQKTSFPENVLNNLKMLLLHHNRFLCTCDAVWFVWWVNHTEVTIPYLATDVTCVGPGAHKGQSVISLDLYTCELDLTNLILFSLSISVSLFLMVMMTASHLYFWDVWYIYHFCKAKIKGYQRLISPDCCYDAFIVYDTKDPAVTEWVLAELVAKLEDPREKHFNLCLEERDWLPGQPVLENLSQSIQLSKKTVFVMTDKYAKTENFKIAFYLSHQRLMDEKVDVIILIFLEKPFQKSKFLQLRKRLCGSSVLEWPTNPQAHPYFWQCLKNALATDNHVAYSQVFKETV
Procedure: as §1, §2, §3

[1] = TLR-7 stimulation, read-out: Human TLR-7 EC50

Compound | EC50 (human TLR8) [µM] | EC50 (human TLR7; [1]) [µM] | also measured
Cc1ccc2c(c1)nc(N)c1ncc(CCc3ccc(C(C)NC(C)CN(C)C)cc3)cc12 (centres unmarked) [Example 189, N^2-(1-(4-(2-(5-amino-8-methylbenzo[f][1,7]naphthyridin-2-yl)ethyl)phenyl)ethyl)-N^1,N^1-dimethylpropane-1,2-diamine] | 6.2 | – | –
CCN(CC)CCNC(C)c1ccc(CCc2cnc3c(N)nc4cc(C)ccc4c3c2)cc1 (centres unmarked) [Example 191, N^1-(1-(4-(2-(5-amino-8-methylbenzo[f][1,7]naphthyridin-2-yl)ethyl)phenyl)ethyl)-N^2,N^2-diethylethane-1,2-diamine] | 6 | – | –
Cc1ccc2c(c1)nc(N)c1ncc(CCc3ccc(CN4CCCC4)cc3)cc12 [Example 177, 8-methyl-2-(4-(pyrrolidin-1-ylmethyl)phenethyl)benzo[f][1,7]naphthyridin-5-amine] | 15 | – | –
Cc1ccc2c(c1)nc(N)c1ncc(CCc3ccc(CCC(C)(C)O)cc3)cc12 [Example 63, 4-(4-(2-(5-amino-8-methylbenzo[f][1,7]naphthyridin-2-yl)ethyl)phenyl)-2-methylbutan-2-ol] | – | 0.024 | –
Cc1ccc2c(c1)nc(N)c1ncc(CCc3ccc4[nH]ccc4c3)cc12 [Example 44, 2-(2-(1H-indol-5-yl)ethyl)-8-methylbenzo[f][1,7]naphthyridin-5-amine] | – | 0.107 | –
Cc1ccc2c(c1)nc(N)c1ncc(CCc3ccc(C(C)NCCC(=O)O)cc3)cc12 (centres unmarked) [Example 187, 3-(1-(4-(2-(5-amino-8-methylbenzo[f][1,7]naphthyridin-2-yl)ethyl)phenyl)ethylamino)propanoic acid] | 82 | – | –
Cc1ccc2c(c1)nc(N)c1ncc(CCc3ccc(Oc4ccccc4)cc3)cc12 [Example 46, 8-methyl-2-(4-phenoxyphenethyl)benzo[f][1,7]naphthyridin-5-amine] | – | 0.347 | –
Cc1ccc2c(c1)nc(N)c1ncc(CCc3ccc(C(C)N4CCN(C)CC4)cc3)cc12 (centres unmarked) [Example 188, 8-methyl-2-(4-(1-(4-methylpiperazin-1-yl)ethyl)phenethyl)benzo[f][1,7]naphthyridin-5-amine] | > 100 | – | –
Nc1nc2ccccc2c2ccc(=O)[nH]c12 [Example 15, 5-aminobenzo[f][1,7]naphthyridin-3(4H)-one] | – | – | EC50 (human TLR7; HEK293-TLR7, read-out: EC50 in HEK293-TLR7 assay): 24.1 µM
Cc1ccc2c(c1)nc(N)c1ncc(CCc3ccc(C(C)NCCc4ccncc4)cc3)cc12 (centres unmarked) [Example 190, 8-methyl-2-(4-(1-(2-(pyridin-4-yl)ethylamino)ethyl)phenethyl)benzo[f][1,7]naphthyridin-5-amine] | 4.3 | – | –
COc1ccc(CCc2cnc3c(N)nc4cc(C)ccc4c3c2)cc1OC [Example 178, 2-(3,4-dimethoxyphenethyl)-8-methylbenzo[f][1,7]naphthyridin-5-amine] | – | 0.562 | –
Cc1ccc2c(c1)nc(N)c1ncc(CCc3ccc(C(C)N4CCC(O)C4)cc3)cc12 (centres unmarked) [Example 195, 1-(1-(4-(2-(5-amino-8-methylbenzo[f][1,7]naphthyridin-2yl)ethyl)phenyl)ethyl)pyrrolidin-3-ol] | 5.3 | – | –
CCCOC(=O)Oc1ccc(CCc2cnc3c(N)nc4cc(C)ccc4c3c2)cc1 [Example 138, 4-(2-(5-amino-8-methylbenzo[f][1,7]naphthyridin-2-yl)ethyl)phenyl propyl carbonate] | – | 0.213 | –
Cc1ccc2c(c1)nc(N)c1ncc(CCc3ccc(C(C)NCCN(C)C)cc3)cc12 (centres unmarked) [Example 186, N^1-(1-(4-(2-(5-amino-8-methylbenzo[f][1,7]naphthyridin-2-yl)ethyl)phenyl)ethyl)-N^2,N^2-dimethylethane-1,2-diamine] | 11 | – | –
Cc1ccc2c(c1)nc(N)c1ncc(CCc3ccc(C(C)N4CCC(C(=O)O)C4)cc3)cc12 (centres unmarked) [Example 193, 1-(1-(4-(2-(5-amino-8-methylbenzo[f][1,7]naphthyridin-2-yl)ethyl)phenyl)ethyl)pyrrolidine-3-carboxylic acid] | 24 | – | –
Cc1ccc2c(c1)nc(N)c1ncc(CCc3ccc(C(C)(C)N)cc3)cc12 [Example 196, 2-(4-(2-aminopropan-2-yl)phenethyl)-8-methylbenzo[f][1,7]naphthyridin-5-amine] | 2.6 | – | –
CCN1CCN(C(=O)c2ccc(CCc3cnc4c(N)nc5cc(C)ccc5c4c3)c(C)c2)CC1 [Example 126, (4-(2-(5-amino-8-methylbenzo[f][1,7]naphthyridin-2-yl)ethyl)-3-methylphenyl)(4-ethylpiperazin-1-yl)methanone] | – | 0.275 | –
Cc1ccc2c(c1)nc(N)c1ncc(CCc3ccc(CCCO)cc3)cc12 [Example 62, 3-(4-(2-(5-amino-8-methylbenzo[f][1,7]naphthyridin-2-yl)ethyl)phenyl)propan-1-ol] | – | 0.035 | –
COC(=O)CCc1ccc(CCc2cnc3c(N)nc4cc(C)ccc4c3c2)cc1 [Example 61, methyl 3-(4-(2-(5-amino-8-methylbenzo[f][1,7]naphthyridin-2-yl)ethyl)phenyl)propanoate] | – | 0.582 | –
Cc1ccc2c(c1)nc(N)c1ncc(CCc3ccc(OCCN4CCOCC4)cc3C)cc12 [Example 147, 8-methyl-2-(2-methyl-4-(2-morpholinoethoxy)phenethyl)benzo[f][1,7]naphthyridin-5-amine] | – | 0.014 | –
